Assay results: article PMC3041857 (Journal of medicinal chemistry, 2011)

Tested on: MDR1-MDCK cell monolayers

| SMILES | Permeability (in words) |
| --- | --- |
| COc1ccc(-c2csc(Nc3ccc(C(F)(F)F)cn3)n2)cc1OC [Compound 12, [4-(3,4-dimethoxyphenyl)-thiazol-2-yl]-(5-trifluoromethylpyridin-2-yl)-amine] | greater permeability in the absorptive direction |
| COc1ccc(-c2csc(Nc3ccc4ccccc4n3)n2)cc1OC [Compound 18, [4-(3,4-dimethoxyphenyl)-thiazol-2-yl]-quinolin-2-yl-amine] | greater permeability in the absorptive direction |
| Cc1ccc(Nc2nc(-c3c(-c4ccccc4)noc3C)cs2)nc1 [Compound 28, [4-(5-Methyl-3-phenylisoxazol-4-yl)-thiazol-2-yl]-(5-methylpyridin-2-yl)-amine] | greater permeability in the absorptive direction |
